Data published in patent US10976306B2, “Protein degradation inducing tag and usage thereof” (Tokyo University of Science Foundation, priority 2015, dated 2021).
pIC50: −log10 of the molar value. Non-standard residues stand in square brackets, D forms with d. Residues, ends and D or L forms follow the SMILES beside them. Nle = CCCC[C@H](N)C(=O)O

Columns and labels:
[1] = target: T1, β1 (caspase-like activity) of 20S proteasome (Homo sapiens, UniProt P28072); experiment: 20S proteasome inhibitory activity, AMC fluorescent substrate Z-LLE-AMC; format: biochemical
T1 construct: purchased Bioscience (20S Proteasome StressXpress Assay Kit Gold)

[2] = target: β2 (trypsin-like activity) of 20S proteasome (Homo sapiens, UniProt Q99436); experiment: 20S proteasome inhibitory activity, AMC fluorescent substrate Bz-VGR-AMC
[3] = target: β5 (chymotrypsin-like activity) of 20S proteasome (Homo sapiens, UniProt P28074); experiment: 20S proteasome inhibitory activity, AMC fluorescent substrate Suc-LLVY-AMC
E. coli DHFR = target: T2, E. coli DHFR (Escherichia coli, UniProt P0ABQ4); experiment: Thermal shift assay of affinity with forcedly expressed target protein in HeLa cells; format: binding; conditions: bortezomib alone
T2 construct: expressed in transfected cells; host or cells: HeLa cells, transient transfection with pMIR DsRed-IRES-ecDHFR-HA-GFP

| Compound | pIC50 ([1]; 20S proteasome 0.1 μg, 30 min preincubation, substrate 100 μM, 1 hour) | inhibitory activity against β1 ([1]; FIGS. 4A, 7A, compared with the original proteasome inhibitor alone) | pIC50 [2] | pIC50 [3] | interaction with E. coli DHFR (E. coli DHFR) |
| --- | --- | --- | --- | --- | --- |
| CCCC[C@@H](C=O)NC(=O)[C@H](CC(C)C)NC(=O)[C@H](CC(C)C)NC(C)=O [ALLN] (Ac-Leu-Leu-[Nle]-aldehyde) | 4.91 | not significantly inhibited | 5.28 | 5.94 |  |
| CC(C)C[C@H](NC(=O)[C@H](Cc1ccccc1)NC(=O)c1cnccn1)B(O)O [Bortezomib] |  |  |  |  | did not interact with E. coli DHFR |
| CC(C)C[C@H](NC(=O)CNC(=O)c1cc(Cl)ccc1Cl)B(O)O [MLN2238] |  |  | 5.19 |  |  |
